# In PubChem BioAssay AID624372 (Broad Institute, 2012):
# Inconclusive results are not listed. Activity calls are given as the source filed them.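 The calls were made as follows: active = fitted curve reaches -35% activity change below twice the top valid dose, with every replicate test called active; inconclusive = replicate tests disagree on the call; inactive = every replicate test called inactive.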
# Tested on: HEK293T viability, CellTiter-Glo ATP luminescence, 48 h
# Test: HEK293T cell viability, dose response, counter-screen for EBV LMP1 inhibitor project, CellTiter-Glo luminescence, dry powder (AID 624372)
# Conditions: not given
row,Structure (SMILES),AC35 [µM]
1,C/C(=N\NC(=S)N1CC2CCC(CC2)C1)c1cnccn1,7.95
2,C/C(=N\NC(=S)N1CCN(c2ccccn2)CC1)c1ccccn1,11.3
3,COCCCNC(=O)C(C)Sc1nnc2c3cc(C)ccc3n(Cc3ccccc3F)c2n1 (centres undefined),56
4,Cc1ccnc(NC(=O)c2ccc(C(=O)c3ccccc3)cc2)c1,72
5,Fc1ccc2c(c1)c1nnc(SCCN3CCOCC3)nc1n2Cc1ccccc1,16.9
6,O=c1[nH]c(=O)n([C@H]2C[C@H](O)[C@@H](CO)O2)cc1C(F)(F)F,27.4
7,S=C(NCc1ccccn1)N/N=C/c1ccccn1,29.6
8,C=C1C[C@]23C[C@@]1(O)CC[C@@H]2c1cccc(C)c1[C@@H]3C(=O)O,7.6
9,C[C@H](CO)N1C[C@H](C)[C@H](CN(C)C(=O)Nc2ccc(C(F)(F)F)cc2)OCCCC[C@H](C)Oc2ccc(NC(=O)Nc3ccc(F)cc3)cc2C1=O,48.2
10,C[C@@H]1CN([C@@H](C)CO)C(=O)c2cc(NC(=O)Nc3ccc(C(F)(F)F)cc3)ccc2O[C@@H](C)CCCCO[C@@H]1CN(C)CC1CCCCC1,62.9
11,C/C(=N\NC(=S)N1CCCCC1)c1cccc(C)n1,0.785
12,C/C(=N\NC(=S)N1CCCCC1)c1ccccn1,10.9
13,C/C(=N\NC(=S)Nc1cccc(Cl)c1)c1ccccn1,16.2
14,C/C(=N\NC(=S)N1CC2CCC(CC2)C1)c1cccc(C)n1,2.02
15,C/C(=N\NC(=S)N1CCCC1)c1ccccn1,11
16,CCC(Sc1nnc2c3ccccc3n(Cc3ccc(Br)cc3)c2n1)C(=O)NCCCN1CCOCC1 (centres undefined),21.2
17,COc1ccc(NC(=O)c2ccc(OC(C)C(=O)O)cc2)cc1Cl (centres undefined),37.6
18,C/C=C/C/C=C/CCC(=O)[C@H]1O[C@H]1C(N)=O,18.3
19,Cc1c(NC(=O)c2cccc(NC(=O)COc3ccccc3C#N)c2)c(=O)n(-c2ccccc2)n1C,24.4

# Tested on: not listed separately
# Test: as above
# Conditions: HEK293T viability, CellTiter-Glo ATP luminescence, 48 h; at 10 µM (top of the series)
row,Structure (SMILES),"activity change, negative = cytotoxicity"
1,C/C(=N\NC(=S)N1CC2CCC(CC2)C1)c1ccncn1,18.8% (inactive)

# Same assay, conditions: HEK293T viability, CellTiter-Glo ATP luminescence, 48 h; at 15 µM (top of the series)
row,Structure (SMILES),"activity change, negative = cytotoxicity"
1,C=C1C[C@]23C[C@@]1(O)CC[C@H]2[C@@]12C=C[C@H](O)[C@@](C)(C(=O)O1)[C@H]2[C@@H]3C(=O)O,15.6% (inactive)

# Same assay, conditions: HEK293T viability, CellTiter-Glo ATP luminescence, 48 h; at 19.5 µM (top of the series)
row,Structure (SMILES),"activity change, negative = cytotoxicity"
1,S=C(N/N=C(\c1ccccc1)c1ccccn1)N(Cc1ccccn1)Cc1ccccn1,8.82% (inactive)
2,CSC(=S)N/N=C(\C)c1cccc(C)n1,17.8% (inactive)
3,C/C(=N\NC(=S)Nc1cccc(C)c1)c1ccccn1,-10.2% (inactive)
4,COc1ccccc1NC(=S)N/N=C(\C)c1ccccn1,3.97% (inactive)

# Same assay, conditions: HEK293T viability, CellTiter-Glo ATP luminescence, 48 h; at 26 µM (top of the series)
row,Structure (SMILES),"activity change, negative = cytotoxicity"
1,CCc1ccc(/C=C/C(=O)C2C(=O)c3ccccc3C2=O)cc1,1.92% (inactive)
2,C[C@@H]1CN([C@@H](C)CO)C(=O)c2cc(NC(=O)Nc3ccc(C(F)(F)F)cc3)ccc2O[C@@H](C)CCCCO[C@H]1CN(C)Cc1ccc(C(F)(F)F)cc1,-3.84% (inactive)
3,CC(=O)Nc1nc(C)c(-c2csc(Nc3ccc(O)cc3)n2)s1,2.53% (inactive)
4,c1ccc(Cn2c3ccccc3c3nnc(SCCN4CCCCC4)nc32)cc1,-15% (inactive)
5,CSc1nc(-c2ccc(C)cc2)nc(C(Cl)Cl)n1,1.77% (inactive)
6,Cc1ccc(NC(=O)C2CCN(S(=O)(=O)c3ccc4c(c3)NC(=O)C(C)S4)CC2)cc1Cl (centres undefined),44.9% (inactive)
7,COc1ccc2[nH]c(C(=O)N/N=C/c3ccc(O)cc3O)cc2c1,3.87% (inactive)
8,CC1=C(C(=O)OCc2ccc3c(c2)OCO3)C(c2ccc(F)cc2)NC(=O)N1 (centres undefined),1.04% (inactive)
9,Cc1ccc(S(=O)(=O)Nc2ccc3c(c2)C(=O)N([C@@H](C)CO)C[C@H](C)[C@@H](CN(C)C(=O)CCC(F)(F)F)OCCCC[C@H](C)O3)cc1,0.533% (inactive)
10,COc1ccc(-c2cc3nc4n(c(=O)c3s2)CCC4)cc1,3.13% (inactive)
11,CCc1ccc(/C=C2\SC(=S)N(CCCC(=O)Nc3ccccn3)C2=O)cc1,1.67% (inactive)
12,C[C@H](CO)N1C[C@H](C)[C@@H](CN(C)CC2CC2)OCCCC[C@H](C)Oc2ccc(NC(=O)Nc3cccc4ccccc34)cc2C1=O,33.4% (inactive)
13,CNC[C@@H]1Oc2ccc(NS(=O)(=O)c3cn(C)cn3)cc2CC(=O)N([C@H](C)CO)C[C@@H]1C,-4.73% (inactive)
14,C[C@@H]1CCCCO[C@H](CN(C)C(=O)c2ccccc2)[C@H](C)CN([C@@H](C)CO)C(=O)c2cc(NC(=O)Nc3ccc(F)cc3)ccc2O1,5.32% (inactive)
15,C[C@@H]1CCCCO[C@H](CN(C)CC2CCCCC2)[C@H](C)CN([C@@H](C)CO)C(=O)c2cc(NC(=O)NC3CCCCC3)ccc2O1,4.75% (inactive)
16,C=CCN1Cc2ccccc2[C@@H]2OC(c3ccc(OCCCO)cc3)=N[C@]2(CCC(=O)OC(C)(C)C)C1=O,6.61% (inactive)
17,CCn1c2ccccc2c2cc(/C=N/n3cnnc3)ccc21,12.2% (inactive)
18,Cc1cc(NC(=O)c2ccc3c(c2)OCCO3)no1,6.92% (inactive)
19,CC1CN(C(=O)CSc2nnc3c4ccccc4n(Cc4cccc(Cl)c4)c3n2)CCN1C(=O)c1ccccc1F (centres undefined),19.4% (inactive)
20,O=C(Nc1cc(C(F)(F)F)cc(C(F)(F)F)c1)Nc1cnn(-c2ccc([N+](=O)[O-])cc2)c1C(F)(F)F,5.06% (inactive)

row,Structure (SMILES),"activity change, negative = cytotoxicity"
1,COc1ccc(C(=O)Nc2ccc3[nH]ccc3c2)cc1,12.8% (inactive)
2,Oc1cccc(C(Nc2nccs2)c2ccc3cccnc3c2O)c1 (centres undefined),4.52% (inactive)
3,CC12CCC3C(CC=C4CC(O)CCC43CO)C1CCC2OC(=O)c1ccccc1 (centres undefined),-2.56% (inactive)
4,c1ccc(-c2cn3c4c(sc3n2)CCCC4)cc1,3.96% (inactive)
5,C[C@@H]1CCCCO[C@H](CN(C)S(=O)(=O)c2ccccc2)[C@@H](C)CN([C@@H](C)CO)C(=O)c2cc(N(C)C)ccc2O1,16.8% (inactive)
6,C[C@@H]1CCCCO[C@@H](CN(C)Cc2ccccc2)[C@H](C)CN([C@H](C)CO)C(=O)c2cc(NC(=O)Nc3ccc4c(c3)OCO4)ccc2O1,1.15% (inactive)
7,COc1ccccc1[C@]1(C)ON(c2ccccc2C(F)(F)F)C1=O,21.8% (inactive)
8,O=C(CSc1nnc2c3ccccc3n(Cc3ccccc3)c2n1)NCc1ccco1,-2.78% (inactive)
9,O=C1/C(=C/c2ccncc2)SC(=S)N1Cc1ccccc1,7.62% (inactive)
10,O=C(CCc1ccccc1)NC(c1cccs1)c1cc(Cl)c2cccnc2c1O (centres undefined),6.13% (inactive)
11,C[C@@H]1CCCCO[C@H](CN(C)C(=O)NC2CCCCC2)[C@H](C)CN([C@@H](C)CO)C(=O)c2cc(NC(=O)C3CCCCC3)ccc2O1,3.97% (inactive)
12,O=c1[nH]c(Nc2nc3ccccc3o2)nc2c1CCCC2,-4.82% (inactive)
13,COc1ccc(-c2csc3ncnc(NCCN4CCOCC4)c23)cc1,7.09% (inactive)
14,COc1ccc2nc(Nc3nc(C)c(CCC(C)C)c(=O)[nH]3)nc(C)c2c1,4.99% (inactive)
15,C[C@@H]1CN([C@@H](C)CO)C(=O)c2cc(NC(=O)Nc3ccc4c(c3)OCO4)ccc2O[C@H]1CN(C)CC1CCCCC1,-4.73% (inactive)
16,C[C@@H]1CCCCO[C@H](CN(C)C(=O)CCC(F)(F)F)[C@H](C)CN([C@@H](C)CO)C(=O)c2cc(NC(=O)CCC(F)(F)F)ccc2O1,-7.41% (inactive)
17,Cc1ccc(S(=O)(=O)NC(CC(C)C)C(=O)NCC(c2ccco2)N2CCCCC2)cc1 (centres undefined),2.47% (inactive)
18,COc1cccc(/C=N/Nc2ncnc3c2ncn3Cc2ccccc2)c1O,15.7% (inactive)
19,CCN1CCN(C(c2cccnc2)c2cc(Cl)c3cccnc3c2O)CC1 (centres undefined),14% (inactive)
